Entries after “also recorded” stand apart in the source; their conditions may differ.
Columns and labels:
[1] = test system: HLA B7-supertype molecules (B*0702, B*3501, B*5101, B*5301, B*5401) and B*0801; experiment: HLA-B7 supertype binding, summary over the allele panel; design: species or system human; conditions: alleles B*3501, B*5101, B*5301, B*5401 and B*0801
Description: (§1) Supertype analysis. Quantitative assays to measure the binding affinity of peptides to purified HLA B7-supertype molecules (B*0702, B*3501, B*5101, B*5301, B*5401) and B*0801 were based on the inhibition of binding of a radiolabeled standard peptide, and were performed as previously described (22, 35). Briefly, 1-10 nM of radiolabeled peptide was co-incubated at room temperature with 1 microM to 1 nM of purified MHC in the presence of 1-3 μM human beta2-microglobulin (Scripps Laboratories, San Diego, Calif.) and a cocktail of protease inhibitors. After a two-day incubation, binding of the radiolabeled peptide to the corresponding MHC class I molecule was determined by capturing MHC/peptide complexes on Greiner Lumitrac 600 microplates (Greiner Bio-one, Longwood, Fla.) coated with the W6/32 antibody, and measuring bound counts per minute (cpm) using the TopCount microscintillation counter (Packard Instrument Co.). […] Under the conditions utilized, where [label]<[MHC] and IC50≧[MHC], the measured IC50 values are reasonable approximations of the true Kd values.
HLA molecules are highly polymorphic posing problems to the identification of peptides, which could be used to cover the totality of the human population. However, HLA alleles can be clustered into a relatively small number of groups termed supertypes (21). The HLA-B7 supertype includes ten alleles (22). Here, we decided to test the selected hTRT peptides for their ability to bind five out of ten members of the HLA-B7 supertype (B*3501, B*5101, B*5301, B*5401) and B*0801. The B*0801 allele shares binding features with B*0702, although is not officially part of the HLA-B7 supertype. This analysis had the purpose to further narrow the selection of putative HLA-B7 immunogens based on supertype binding (Table V).

[2] = molecular target: HLA-B7 (HLA-B*0702) (Homo sapiens, UniProt P01889); experiment: MHC stabilization assay on T2-B7 cells (relative avidity); format: cell-based; conditions: summary of both binding assays of Table II
Description: MHC binding assays. Relative avidity measurements. The relative avidity of hTRT peptides for HLA B7 was measured using a MHC stabilization assay on T2-B7 cells in comparison with a reference peptide as described previously (14).
(§2) Next, we assessed the actual binding avidity for HLA-B7 (HLA-B*0702). Two independent assays were used: binding stabilization assay on T2-B7 cells by flow cytometry (12) and a competitive solid-phase radioimmunoassay on immobilized purified HLA-B7 molecule (35).

[3] = molecular target: B*0702 (Homo sapiens, UniProt P01889); experiment: competition solid-phase radioimmunoassay on purified HLA molecule; format: binding
Description: as §1, §2

[4] = test system: JY cells; experiment: lysis of hTRT positive JY cells by human CTL against p1123; format: cell-based; conditions: CTL from normal donors; no peptide pulsing
Description: Tests were run in duplicates at the indicated E:T ratios. CTL were used after 4 cycles of in vitro restimulation with homologous peptide. […].
In vitro immunization procedures. In experiments shown in Table III and FIG. 3, immunizations were performed in 96 well plates. Briefly, 2×10^5 irradiated (6000 rads) human PBMC were plated in 96 (flat) well-plate in 100 micro-liters of complete human medium (RPMI 1640 medium containing 10% heat inactivated human AB serum, 2 mM glutamine, 50 micro-grams/ml streptomycin and 50 micro-grams/ml penicillin) with 100 micro-grams/ml of peptide. 12 wells per peptide were plated per patient. Then 2×10^5 PBMC in 100 micro-liters of complete human medium were added into each well. Four days later 100 micro-liters of medium were replaced with 100 micro-liters of fresh complete human medium containing 80 IU/ml of IL-2. At day 6-7, 100 IU/ml of IL-2 were added and wells were split into two. On day 10-11 micro-cytotoxicity assay was performed. […]
(§3) CTL assays. Both murine and human CTL were detected by the ^51Cr release assay performed as previously described (14). […] The supernatants were harvested and counted on a Wallac 1470 Wizard Gamma counter. The percent lysis was calculated as 100 (cpmexp−cpmspont)/(cpmmax−cpmspont). […]

[5] = test system: human T2-B7 pulsed with p1123; experiment: murine CTL line specific for p1123, 51Cr-release assay; format: cell-based; conditions: mCTL from p1123-immunized HLA-B7 Tg mice
[6] = test system: T2-B7 target cells pulsed with p1123; experiment: conventional in vitro immunization of human PBMC with p1123, 51Cr-release assay; format: cell-based
Description: FIG. 4. Characterization of human CTL generated by in vitro immunization. An example of one of two HLA-B7^+ normal donor PBMC from and a prostate cancer patient. Immunization in vitro was performed using a conventional method (12). […] CTL were tested after 5 cycles of in vitro restimulation with homologous peptide. (B) Surface phenotype analysis using anti-CD3 and anti-CD8 monoclonal antibodies of the CTL shown in panel A. The percentage of double positive cells is indicated. […] CTL were tested after 7 cycles of in vitro restimulation with homologous peptide. (D) Surface phenotype analysis using anti-CD3 and anti-CD8 monoclonal antibodies of the CTL from the same patient shown on panel C after 5 cycles of in vitro restimulation with homologous peptide. Experiments shown in A and B are representative of set of similar data from two normal donors examined at different times.
In vitro immunization procedures. In experiments shown in Table III and FIG. 3, immunizations were performed in 96 well plates. […]
as §3

## CC(C)C[C@H](NC(=O)[C@H](C)NC(=O)[C@@H](NC(=O)[C@H](CC(C)C)NC(=O)[C@@H](NC(=O)[C@@H](NC(=O)CNC(=O)[C@@H]1CCCN1C(=O)[C@@H](N)CC(C)C)[C@@H](C)O)[C@@H](C)O)[C@@H](C)O)C(=O)O [p1107, LPGTTLTAL]
[1]
  HLA-B7 supertype binding (in words): bound with high avidity three out of five alleles
[2]
  binding avidity for HLA-B7 (in words): high avidity binding; also recorded: high binding in vitro
[3]
  IC50: 0.96 nM

## CC[C@H](C)[C@H](NC(=O)[C@@H](NC(=O)[C@H](CCCCN)NC(=O)[C@H](Cc1ccccc1)NC(=O)[C@H](CC(=O)O)NC(=O)[C@H](CO)NC(=O)[C@@H]1CCCN1C(=O)[C@@H](N)CC(C)C)[C@@H](C)O)C(=O)N[C@@H](CC(C)C)C(=O)O [p1123]
[1]
  HLA-B7 supertype binding (in words): bound to various alleles of the HLA-B7 supertype; also recorded: measurable avidity for all alleles examined
[4]
  lysis of JY cells by CTL against p1123 (in words): also killed JY cells in the absence of any peptide pulsing
[5]
  lytic activity of mCTL line for T2-B7 pulsed with peptide (in words): high lytic activity
[3]
  IC50: 11 nM
[6]; PBMC from HLA-B7+ normal blood donors, repeated in vitro restimulation
  CTL induction and lysis of T2-B7 pulsed with p1123 (in words): high efficiency CTL were induced
[6]; PBMC from a prostate cancer patient, compared with normal donors
  efficiency of CTL induced (in words): less efficient

## CC(C)C[C@H](NC(=O)[C@H](CCCNC(=N)N)NC(=O)[C@H](CCCNC(=N)N)NC(=O)[C@H](CC(C)C)NC(=O)[C@H](CS)NC(=O)[C@H](C)NC(=O)[C@H](CCCNC(=N)N)NC(=O)[C@@H](NC(=O)[C@@H](N)Cc1ccccc1)C(C)C)C(=O)O [p464]
[1]
  HLA-B7 supertype binding (in words): little HLA-B7 supertype binding
[3]
  IC50: 4.1 nM

## CC(C)C[C@H](NC(=O)[C@H](CO)NC(=O)[C@@H](NC(=O)[C@H](C)NC(=O)[C@H](CCC(=O)O)NC(=O)[C@H](CCC(=O)O)NC(=O)[C@H](C)NC(=O)[C@@H]1CCCN1C(=O)[C@@H](N)CCCNC(=N)N)[C@@H](C)O)C(=O)O [p277]
[1]
  HLA-B7 supertype binding (in words): bound four alleles with intermediate avidity
[2]
  binding avidity for HLA-B7 (in words): high avidity binding; also recorded: high binding in vitro

## CC(C)C[C@H](NC(=O)[C@H](CC(C)C)NC(=O)[C@H](CCC(N)=O)NC(=O)[C@@H](NC(=O)[C@H](CC(C)C)NC(=O)[C@H](CCCNC(=N)N)NC(=O)[C@H](CCCNC(=N)N)NC(=O)[C@@H]1CCCN1C(=O)[C@@H](N)CC(=O)O)C(C)C)C(=O)O [p444]
[1]
  HLA-B7 supertype binding (in words): little HLA-B7 supertype binding
[2]
  binding avidity for HLA-B7 (in words): poor and weak binding and poor binding
[3]
  IC50: 239 nM

From patent US20090202499A1, “Human Telomerase Reverse Transcriptase Peptides” (priority 2006, published 2009)
